PubChem BioAssay AID602350 (Broad Institute, 2012)

Molecular target: Protein disulfide-isomerase (Homo sapiens) (UniProt P07237)
Experiment: inhibition of PDI-driven insulin aggregation – biochemical, turbidity, absorbance, cherry-picked samples, dose response (AID 602350);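 also: potency is for inhibitors that reduce insulin aggregation absorbance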
Details: recombinant PDI insulin aggregation, absorbance 650 nm, 90 min

Chain of Protein disulfide-isomerase (Homo sapiens) (P07237 whole entry, looked up): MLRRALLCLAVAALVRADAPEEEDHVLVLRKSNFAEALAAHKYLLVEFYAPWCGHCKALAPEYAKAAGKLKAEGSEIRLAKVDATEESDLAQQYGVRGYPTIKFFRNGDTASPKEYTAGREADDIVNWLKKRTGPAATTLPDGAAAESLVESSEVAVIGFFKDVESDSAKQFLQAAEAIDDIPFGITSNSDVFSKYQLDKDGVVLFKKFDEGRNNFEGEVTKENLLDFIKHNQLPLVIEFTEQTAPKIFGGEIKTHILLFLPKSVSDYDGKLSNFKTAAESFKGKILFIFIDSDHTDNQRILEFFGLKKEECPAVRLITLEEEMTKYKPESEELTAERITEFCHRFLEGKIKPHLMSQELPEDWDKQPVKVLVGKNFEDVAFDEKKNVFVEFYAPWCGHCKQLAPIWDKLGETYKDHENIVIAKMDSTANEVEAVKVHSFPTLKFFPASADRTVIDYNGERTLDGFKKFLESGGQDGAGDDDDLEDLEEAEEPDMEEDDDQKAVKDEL

Cc1noc(C)c1S(=O)(=O)Nc1ccc2c(c1)CC(=O)N([C@@H](C)CO)C[C@@H](C)[C@H](CN(C)S(=O)(=O)c1ccc(F)cc1)O2
AC50: 19.5 µM
